Reference: EPA's ToxRefDB 2

How the values were obtained:
[1] = system: rat; settings: Prenatal developmental toxicity study, sprague dawley, Oral, Gavage/Intubation, dose end: 17 GD
[2] = system: rat; settings: Prenatal developmental toxicity study, sprague dawley, Oral, Gavage/Intubation, dose end: 17 GD; remark: listed apart in the source
[3] = system: dog; settings: Sub-acute repeat dose toxicity, beagle, Oral, Gavage/Intubation, dose end: 4 week, group: systemic
[4] = system: rabbit; settings: Prenatal developmental toxicity study, new zealand white, Oral, Gavage/Intubation, dose end: 19 GD
[5] = system: rat; settings: Sub-acute repeat dose toxicity, sprague dawley, Oral, Gavage/Intubation, dose end: 28 day, group: systemic
[6] = system: mouse; settings: Subchronic oral toxicity in rodents, b6c3f1, Gavage/Intubation, dose end: 17 week, group: systemic
[7] = system: rat; settings: Subchronic oral toxicity in rodents, fischer, Gavage/Intubation, dose end: 17 week, group: systemic
[8] = system: mouse; settings: Combined chronic toxicity/carcinogenicity, other, Oral, Feed, dose end: 24 month, group: systemic
[9] = system: dog; settings: Chronic toxicity, beagle, Oral, Feed, dose end: 12 month, group: systemic
[10] = system: rat; settings: Chronic toxicity; sprague dawley; Oral; Feed; dose end: 52 week; group: systemic; systemic / pathology microscopic / liver / hypertrophy + systemic / pathology microscopic / thyroid gland / colloid content + systemic / …
[11] = group: developmental, systemic / in life observation / body weight / fetal weight
[12] = group: maternal, systemic / in life observation / body weight / body weight gain + systemic / in life observation / food consumption / food consumption + …
[13] = group: developmental, developmental / developmental malformation / brain / dilated cerebral ventricle
[14] = group: developmental, developmental / developmental malformation / brain / dilated cerebral ventricle + developmental / developmental malformation / bone / …
[15] = group: maternal, reproductive / reproductive performance / postimplantation loss / postimplantation loss + systemic / in life observation / body weight / …
[16] = systemic / clinical chemistry / chloride / chloride + systemic / hematology / eosinophils / eosinophils + systemic / hematology / …
[17] = systemic / in life observation / body weight / body weight + systemic / in life observation / clinical signs / defecation (diarrhea) + …
[18] = group: maternal, reproductive / reproductive performance / postimplantation loss / postimplantation loss + reproductive / reproductive performance / …
[19] = systemic / clinical chemistry / alanine aminotransferase (alt/sgpt) / alanine aminotransferase (alt/sgpt) + systemic / clinical chemistry / …
[20] = systemic / hematology / platelet / platelet + systemic / in life observation / clinical signs / hunched posture + systemic / pathology …
[21] = systemic / hematology / leukocyte (wbc) count differential / leukocyte (wbc) + systemic / hematology / lymphocyte / lymphocyte
[22] = systemic / hematology / leukocyte (wbc) count differential / leukocyte (wbc) + systemic / hematology / lymphocyte / lymphocyte + systemic / …
[23] = systemic / in life observation / clinical signs / feces, discoloration

Question: `N#C[C@@H]1CC(F)(F)CN1C(=O)CNC1CC2CCC(C1)N2c1ncccn1` (some centres not stated) was tested. Which LEL [1, 11] did it give?
Answer: 100 mg/kg/day

Question: And the LOAEL [1, 11]?
Answer: 100 mg/kg/day

Question: And the NEL [1, 11]?
Answer: < 100 mg/kg/day

Question: And the NOAEL [1, 11]?
Answer: < 100 mg/kg/day

Question: And the LEL [1, 12]?
Answer: 200 mg/kg/day

Question: What about the LOAEL [1, 12] of the same molecule?
Answer: 200 mg/kg/day

Question: What about the NEL [1, 12] of the same molecule?
Answer: 100 mg/kg/day

Question: What about the NOAEL [1, 12] of the same molecule?
Answer: 100 mg/kg/day

Question: And the LEL [2, 13]?
Answer: 100 mg/kg/day

Question: And the LOAEL [2, 13]?
Answer: 100 mg/kg/day

Question: What about the NEL [2, 14] of the same molecule?
Answer: 50 mg/kg/day

Question: What about the NOAEL [2, 14] of the same molecule?
Answer: 50 mg/kg/day

Question: And the LOAEL [2, 15]?
Answer: 150 mg/kg/day

Question: And the NEL [2, 15]?
Answer: 50 mg/kg/day

Question: And the NOAEL [2, 15]?
Answer: 100 mg/kg/day

Question: And the LEL ([2]; group: maternal, systemic / in life observation / body weight / body weight gain)?
Answer: 100 mg/kg/day

Question: What about the LOAEL [3, 16] of the same molecule?
Answer: > 30 mg/kg/day

Question: And the NOAEL [3, 16]?
Answer: ≥ 30 mg/kg/day

Question: And the LEL [3, 17]?
Answer: 3 mg/kg/day

Question: And the NEL [3, 17]?
Answer: < 3 mg/kg/day

Question: What about the LEL [4, 11] of the same molecule?
Answer: 500 mg/kg/day

Question: What about the LOAEL [4, 11] of the same molecule?
Answer: > 1500 mg/kg/day

Question: And the NEL [4, 11]?
Answer: < 500 mg/kg/day

Question: And the NOAEL [4, 11]?
Answer: ≥ 1500 mg/kg/day

Question: What about the LEL [4, 18] of the same molecule?
Answer: 500 mg/kg/day

Question: And the LOAEL [4, 18]?
Answer: > 1500 mg/kg/day

Question: What about the NEL [4, 18] of the same molecule?
Answer: < 500 mg/kg/day

Question: And the NOAEL [4, 18]?
Answer: ≥ 1500 mg/kg/day

Question: And the LOAEL [5, 19]?
Answer: > 450 mg/kg/day

Question: And the NOAEL [5, 19]?
Answer: ≥ 450 mg/kg/day

Question: And the LEL [5, 20]?
Answer: 50 mg/kg/day

Question: And the NEL [5, 20]?
Answer: < 50 mg/kg/day

Question: With `c1ccccc1` [Benzene] as the molecule, how does the LEL [6, 21] read?
Answer: 50 mg/kg/day

Question: What about the LOAEL [6, 22] of the same molecule?
Answer: > 600 mg/kg/day

Question: And the NEL [6, 22]?
Answer: 25 mg/kg/day

Question: What about the NOAEL [6, 22] of the same molecule?
Answer: ≥ 600 mg/kg/day

Question: What about the LEL [7, 21] of the same molecule?
Answer: 25 mg/kg/day

Question: And the NEL [7, 21]?
Answer: < 25 mg/kg/day

Question: What about the LOAEL [7, 22] of the same molecule?
Answer: > 600 mg/kg/day

Question: And the NOAEL [7, 22]?
Answer: ≥ 600 mg/kg/day

Question: For `CC(CCl)OC(C)CCl` (configuration not stated) [Bis(2-chloro-1-methylethyl) ether], which LOAEL [8, 19] is on record?
Answer: > 927 mg/kg/day

Question: What about the NEL [8, 19] of the same molecule?
Answer: 8.41 mg/kg/day

Question: What about the NOAEL [8, 19] of the same molecule?
Answer: ≥ 927 mg/kg/day

Question: And the LEL ([8]; systemic / hematology / leukocyte (wbc) count differential / leukocyte (wbc))?
Answer: 40.1 mg/kg/day

Question: Which LEL [9, 23] does the source give for `CC1(C)C(=O)N(Cl)C(=O)N1Br` [Bromo-3-chloro-5,5-dimethylhydantoin] here?
Answer: 120 mg/kg/day

Question: What about the NEL [9, 23] of the same molecule?
Answer: < 120 mg/kg/day

Question: What about the LOAEL ([9]; systemic / pathology microscopic / adrenal gland / hypertrophy) of the same molecule?
Answer: 1510 mg/kg/day

Question: And the NOAEL ([9]; systemic / pathology microscopic / adrenal gland / hypertrophy + systemic / in life observation / clinical signs / feces, discoloration + …)?
Answer: 342 mg/kg/day

Question: Which LEL [10] does the source give for `C/C=C/C(=O)Oc1ccccc1[N+](=O)[O-].CCCCCCCC.O=NO` [Dinocap] here?
Answer: 121 mg/kg/day

Question: And the LOAEL [10]?
Answer: 121 mg/kg/day

Question: And the NEL [10]?
Answer: 11.4 mg/kg/day

Question: And the NOAEL [10]?
Answer: 11.4 mg/kg/day
